Reference: patent EP0015544A2, “Derivatives of the mercaptopropionamido-acetic acid, process for the preparation thereof and compositions” (ZAMBON S.p.A., priority 1979, dated 1980)

Experiments:
[1] = in vivo; conditions: ip, i.p. administration in the mouse, buffered with sodium bicarbonate at pH 6, read-out: DL50 (the source's name)
[2] = system: mucins of the fibrillar reticulum; test: glycopeptide analysis of bronchial mucus from orally treated patients; format: in vivo; conditions: comparative test, 70 mg/kg/die
Experimental: The analysis of the glycopeptides of the bronchial mucus obtained by hydrolysis with papaine (24 hours at 37°C, pH 6.5) followed by pronasis (24 hours at 37°C at pH 7.3) and fractionation by electrophoresis on agarose at pH 8.6 and finally chromatografy on DEAE -Sephadex A/25 column has shown an average increasing of about 100% of the sialoglycopeptides (hydrophil- ics) with a reduction higher than 60% of the weakly acid glycopeptides and neutral mucins (hydrophobics) followed by lowering of the viscosity.

[3] = system: bronchial ipersecretion induced with S02; test: bronchial hypersecretion induced with SO2 in rats; format: in vivo; conditions: oral, two weeks, 0.5 g/kg/die (esters: equivalent to 0.5 g/kg/die of free acid); 300 ppm SO2 two hours a day, total 90 hours; untreated animals 80%
From the text: Under the same experimental conditions in tests carried out with Carbocysteine at the same dose (0.5 g/kg/die) the percentage of the non protected animals was 25%.

[4] = system: intrabronchial desquamation and the reactive mucousa iperplasye; test: CCl nebulization in rats, bronchial desquamation and mucosal hyperplasia; format: in vivo; conditions: oral 0.5 g/kg/die (esters: equivalent to 0.5 g/kg/die of the acid); nebulization 10 days, 5 nebulizations for 2 minutes a day

Row | SMILES | LD50 [1] [mg/kg] | average increasing of the sialoglycopeptides [2] [%] | decreasing of the glycopeptides and mucins [2] [%] | bronchial obstruction, percentage of treated (non protected) animals [3] [%] | hindering of the intrabronchial desquamation and the reactive mucousa iperplasye [4] [%]
1 | O=C(O)CNC(=O)CCSCC(=O)O [beta-(S-carboxvmethvl)-propionvl-qlvcine] | 5500 |  |  |  | 
2 | N[C@@H](CSCC(=O)O)C(=O)O [Carbocysteine] | 5180 | ≤ 75 | ≤ 45 | 25 | ≤ 40
3 | CC(SCC(=O)O)C(=O)NCC(=O)O (stereo not shown) [S-carboxymethyl-propionyl-glycine] | 5420 |  |  |  | 
